# From patent publication US20080146662A1, “Methods and compositions for treatment of cancer pain” (priority 2002, published 2008)
# Tests used:
# Format in all cases: in vivo
# [1] = biological target: T1, COX-1 (Rattus norvegicus, UniProt Q63921); test: Thromboxane B2 levels in samples from treated animals (COX-1 inhibition)
# T1 construct: The levels of thromboxane B2 in the samples from COX189-treated animals; from tissue; host or cells: samples from treated rats
# T1 sequence (Q63921 27-602): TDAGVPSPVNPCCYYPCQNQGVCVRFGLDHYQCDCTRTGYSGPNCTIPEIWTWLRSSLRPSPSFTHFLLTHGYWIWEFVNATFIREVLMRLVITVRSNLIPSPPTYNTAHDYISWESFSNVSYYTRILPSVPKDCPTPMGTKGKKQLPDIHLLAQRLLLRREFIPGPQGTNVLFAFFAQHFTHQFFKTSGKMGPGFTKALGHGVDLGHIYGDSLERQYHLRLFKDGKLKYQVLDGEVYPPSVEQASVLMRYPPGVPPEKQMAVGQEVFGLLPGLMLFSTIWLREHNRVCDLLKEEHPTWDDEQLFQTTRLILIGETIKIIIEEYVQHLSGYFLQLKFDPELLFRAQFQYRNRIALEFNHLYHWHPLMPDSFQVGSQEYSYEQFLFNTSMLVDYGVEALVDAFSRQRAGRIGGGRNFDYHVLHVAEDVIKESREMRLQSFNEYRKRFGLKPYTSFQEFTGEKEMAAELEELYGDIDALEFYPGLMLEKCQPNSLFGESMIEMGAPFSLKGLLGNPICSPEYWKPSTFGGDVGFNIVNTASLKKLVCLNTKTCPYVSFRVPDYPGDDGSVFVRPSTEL
# [2] = system: rat model of bone cancer pain (MRMT-1 rat mammary gland carcinoma cells); test: Radiologically observed structural changes and bone mineral density in rat model of bone cancer pain; details: for radiologically observed structural changes / loss of bone mineral density compared to vehicle treated animals: day 20
# Method: Adult female rats are given intra-tibial injections of MRMT-1 rat mammary gland carcinoma cells (3 μl, 10^7 cells/ml).
# [3] = system: rat model of bone cancer pain (MRMT-1 rat mammary gland carcinoma cells); test: Weight-bearing difference in rat model of bone cancer pain (intra-tibial MRMT-1 cells); details: for weight-bearing difference between contralateral and ipsilateral paw: vs vehicle
# Method: Adult female rats are given intra-tibial injections of MRMT-1 rat mammary gland carcinoma cells (3 μl, 10^7 cells/ml). These animals gradually develop mechanical hyperalgesia, mechanical allodynia (skin sensitivity to non-noxious stimuli) and hind limb sparing, beginning on day 12-14 following cell injection. COX-2 inhibitors, 5-methyl-2-(2′-chloro-6′-fluoroanilino)-phenylacetic acid (hereinafter referred to as COX189) (10 and 30 mg/kg p.o.) and valdecoxib (30 mg/kg p.o.) are administered as described below and the results obtained compared with vehicle treated controls.
# Intra-tibial inoculation of MRMT-1 cells induces a time-dependent hypersensitivity in the ipsilateral limb, measured as a shift in body weight to the contralateral limb. The increase in weight-bearing difference between contralateral and ipsilateral paw (weight shift from the affected to the unaffected limb) is evident by day 14 post-inoculation and continues to increase until day 20.
# [4] = system: rat model of bone cancer pain (MRMT-1 rat mammary gland carcinoma cells); test: Mechanical allodynia (static and dynamic) in rat model of bone cancer pain; details: day 20; for static allodynia (punctuate stimulus), ipsilateral paw: 90 minutes after the last administration
# Method: Adult female rats are given intra-tibial injections of MRMT-1 rat mammary gland carcinoma cells (3 μl, 10^7 cells/ml). These animals gradually develop mechanical hyperalgesia, mechanical allodynia (skin sensitivity to non-noxious stimuli) and hind limb sparing, beginning on day 12-14 following cell injection.
Compound,"thromboxane B2 level, % of the levels in the vehicle-control animals ([1]; 10 mg/kg)","thromboxane B2 level, % of the levels in the vehicle-control animals ([1]; 30 mg/kg)",radiologically observed structural changes ([2]; 10 mg/kg repeated),loss of bone mineral density compared to vehicle treated animals ([2]; 30 mg/kg repeated),radiologically observed structural changes ([2]; 30 mg/kg repeated),"radiologically observed structural changes in an animal model of bone cancer pain ([2]; general statement, no dose given)","weight-bearing difference between contralateral and ipsilateral paw ([3]; 10 mg/kg p.o. repeated from day 10 post-inoculation, days 14, 17 and 20, measured 1 hour after drug administration)","weight-bearing difference between contralateral and ipsilateral paw ([3]; 30 mg/kg p.o. repeated from day 10 post-inoculation, days 14, 17 and 20, measured 1 hour after drug administration)",dose dependence of the effect on weight-bearing difference ([3]; 10 versus 30 mg/kg p.o.),"dynamic allodynia (light stroking of the skin), ipsilateral paw ([4]; 10 mg/kg p.o. repeated)","static allodynia (punctuate stimulus), ipsilateral paw ([4]; 10 mg/kg p.o. repeated)","dynamic allodynia (light stroking of the skin), ipsilateral paw ([4]; 30 mg/kg p.o. repeated)","static allodynia (punctuate stimulus), ipsilateral paw ([4]; 30 mg/kg p.o. repeated)","weight-bearing difference between contralateral and ipsilateral paw ([3]; 30 mg/kg p.o. repeated, day 20)"
"Cc1ccc(Nc2c(F)cccc2Cl)c(CC(=O)O)c1 [COX189, 5-methyl-2-(2′-chloro-6′-fluoroanilino)-phenylacetic acid]",87.4±17.7%,64.5±8.0%,significantly inhibits,significantly inhibit,significantly inhibits,inhibit the radiologically observed structural changes,significantly attenuates,significantly attenuates,not dose-dependent,tendency to reduce,significantly reverses,reaches statistical significance,significantly reverses,–
"Cc1onc(-c2ccccc2)c1-c1ccc(S(N)(=O)=O)cc1 [valdecoxib, reference compound]",–,77.4±27.8%,–,no significant effect,no significant effect,–,–,–,–,–,–,tendency to reduce,significantly reverses,significant
